From ChEMBL document CHEMBL4706659, “Design, synthesis and biological evaluation of novel 2,4-diaryl pyrimidine derivatives as selective EGFR inhibitors” (Eur J Med Chem, 2021)

Assays:
[1] = tested on: PC-9; assay: Antiproliferative activity against human PC-9 cells harboring EGFR L858R mutant by MTT assay; type: functional, cell-based
[2] = tested on: NCI-H1975; assay: Antiproliferative activity against human NCI-H1975 cells harboring EGFR T790M/L858R mutant by MTT assay; type: functional, cell-based
[3] = tested on: NCI-H292; assay: Antiproliferative activity against human NCI-H292 cells harboring wild-type EGFR by MTT assay; type: functional, cell-based
[4] = Selectivity ratio of IC50 for antiproliferative activity against human NCI-H292 cells harboring wild-type EGFR to IC50 for antiproliferative activity against human NCI-H1975 cells harboring EGFR T790M/L858R mutant; type: functional
[5] = Cytotoxicity against HLF cells assessed as reduction in cell viability by MTT assay; type: cell-based; conditions: Homo sapiens
[6] = tested on: NCI-H1975; assay: Antitumor activity against human NCI-H1975 cells harboring EGFR T790M/L858R mutant xenografted in nude mouse assessed as tumor volume at 15 mg/kg, po administered once daily for 7 days (reference value: 843 mm3); type: functional; conditions: time 7 day
[7] = tested on: NCI-H1975; assay: Antitumor activity against human NCI-H1975 cells harboring EGFR T790M/L858R mutant xenografted in nude mouse assessed as tumor growth inhibition at 15 mg/kg, po administered once daily for 7 days relative to control; type: functional; conditions: time 7 day
[8] = Cytotoxicity against HEK293-A cells assessed as reduction in cell viability by MTT assay; type: cell-based; conditions: Homo sapiens
[9] = tested on: HK-2; assay: Cytotoxicity against HK-2 cells assessed as reduction in cell viability by MTT assay; type: cell-based; conditions: Homo sapiens
[10] = tested on: NCI-H1975; assay: Antiproliferative activity against human NCI-H1975 cells; type: functional, cell-based
[11] = tested on: PC-9; assay: Antiproliferative activity against human PC-9 cells; type: functional, cell-based
[12] = Antiproliferative activity against human DiFi cells; type: functional, cell-based
[13] = tested on: BT-474; assay: Antiproliferative activity against human BT-474 cells; type: functional, cell-based
[14] = tested on: SK-BR-3; assay: Antiproliferative activity against human SK-BR-3 cells; type: functional, cell-based
[15] = Antiproliferative activity against human RPC9 cells; type: functional, cell-based
[16] = Cmax in Sprague-Dawley rat at 2 mg/kg, iv administered as single dose; type: ADME, organism-based; design: route intravenous, dose 2 mg/kg; conditions: in vivo
[17] = Cmax in Sprague-Dawley rat at 10 mg/kg, po administered as single dose; type: ADME, organism-based; design: route oral, dose 10 mg/kg; conditions: in vivo
[18] = MRT in Sprague-Dawley rat at 10 mg/kg, po administered as single dose; type: ADME, organism-based; conditions: in vivo
[19] = Half life in Sprague-Dawley rat at 2 mg/kg, iv administered as single dose; type: ADME, organism-based; conditions: in vivo
[20] = Tmax in Sprague-Dawley rat at 10 mg/kg, po administered as single dose; type: ADME, organism-based; conditions: in vivo
[21] = Oral bioavailability in Sprague-Dawley rat at 10 mg/kg administered as single dose; type: ADME, organism-based; conditions: in vivo
[22] = MRT in Sprague-Dawley rat at 2 mg/kg, iv administered as single dose; type: ADME, organism-based; conditions: in vivo
[23] = Half life in Sprague-Dawley rat at 10 mg/kg, po administered as single dose; type: ADME, organism-based; conditions: in vivo
[24] = AUC (0 to t) in Sprague-Dawley rat at 2 mg/kg, iv administered as single dose; type: ADME, organism-based; design: dose 2 mg/kg; conditions: in vivo
[25] = AUC (0 to infinity) in Sprague-Dawley rat at 2 mg/kg, iv administered as single dose; type: ADME, organism-based; design: route intravenous, time infinity, dose 2 mg/kg; conditions: in vivo
[26] = Clearance in Sprague-Dawley rat at 2 mg/kg, iv administered as single dose; type: ADME, organism-based; conditions: in vivo
[27] = AUC (0 to t) in Sprague-Dawley rat at 10 mg/kg, po administered as single dose; type: ADME, organism-based; design: dose 10 mg/kg; conditions: in vivo
[28] = AUC (0 to infinity) in Sprague-Dawley rat at 10 mg/kg, po administered as single dose; type: ADME, organism-based; design: time infinity, route oral, dose 10 mg/kg; conditions: in vivo

Compound | IC50 [1] [nM] | IC50 [2] [nM] | IC50 [3] [nM] | Ratio IC50 [4] | other results
C=CC(=O)Nc1cc(Nc2nccc(-c3cn(C4CC4)c4ccccc34)n2)c(OC)cc1OCC[S+](C)[O-] (stereo not drawn) | 435 | 544 | 4810 | 8.8 | –
C=CC(=O)Nc1cc(Nc2nccc(-c3cn(C4CC4)c4ccccc34)n2)c(OC)cc1N(C)CCSC | 1320 | 1300 | 2630 | 2 | –
C=CC(=O)Nc1cc(Nc2ncc(Cl)c(-c3cn(C4CC4)c4ccccc34)n2)c(OC)cc1[S+]([O-])CCN(C)C (stereo not drawn) | 5 | 9 | 156 | 17.3 | –
C=CC(=O)Nc1cc(Nc2nccc(-c3cn(C)c4ccccc34)n2)c(OC)cc1N(C)CCN(C)C [OSIMERTINIB] | […] | […] | 924 | – | IC50 [5]: 3350 nM; Activity [6]: 21 mm3; TGI [7]: 97.64%; IC50 [8]: 2250 nM; IC50 [9]: 2720 nM
C=CC(=O)Nc1cccc(Oc2nc(Nc3ccc(N4CCN(C)CC4)cc3OC)ncc2Cl)c1 | – | – | – | – | IC50 [10]: 47 nM; IC50 [11]: 36 nM
C=CC(=O)Nc1cc(Nc2nccc(-c3cn(C4CC4)c4ccccc34)n2)c(OC)cc1OCCCSC | 2320 | 1120 | > 10000 | >8.9 | –
C=CC(=O)Nc1cccc(Nc2nc(Nc3ccc(N4CCN(C(C)=O)CC4)cc3OC)ncc2C(F)(F)F)c1 [ROCILETINIB] | – | – | – | – | IC50 [10]: 23 nM; IC50 [11]: 84 nM
C=CC(=O)Nc1cc(Nc2nccc(-c3cn(C4CC4)c4ccccc34)n2)c(OC)cc1SCCN(C)C | 44 | 21 | 674 | 32.1 | –
C=CC(=O)Nc1cc(Nc2nccc(-c3cn(C4CC4)c4ccccc34)n2)c(OC)cc1OCCC[S+](C)[O-] (stereo not drawn) | 203 | 445 | 3760 | 8.5 | –
C=CC(=O)Nc1cc(Nc2ncc(Cl)c(-c3cn(C4CC4)c4ccccc34)n2)c(OC)cc1SCCN(C)C | 9 | 8 | 157 | 19.6 | –
C=CC(=O)Nc1cc(Nc2nccc(-c3cn(C4CC4)c4ccccc34)n2)c(OC)cc1N(C)CCO | 64 | 74 | 1690 | 22.9 | –
C=CC(=O)Nc1cc(Nc2nccc(-c3cn(C4CC4)c4ccccc34)n2)c(OC)cc1OCCN(C)C | 5 | 8 | 432 | 54 | –
C=CC(=O)Nc1cc(Nc2nccc(-c3cn(C4CC4)c4ccccc34)n2)c(OC)cc1N(C)CC[S+](C)[O-] (stereo not drawn) | 261 | 411 | 1140 | 2.8 | –
C=CC(=O)Nc1cc(Nc2nccc(-c3cn(C4CC4)c4ccccc34)n2)c(OC)cc1OCCSC | 648 | 543 | 9770 | 18 | –
C#Cc1cccc(Nc2ncnc3cc(OCCOC)c(OCCOC)cc23)c1 [ERLOTINIB] | – | – | – | – | IC50 [12]: 20 nM
COc1cc2ncnc(Nc3ccc(F)c(Cl)c3)c2cc1NC(=O)/C=C/CN1CCCCC1 [DACOMITINIB ANHYDROUS] | – | – | – | – | IC50 [13]: 18 nM; IC50 [14]: 15 nM
CN(C)C/C=C/C(=O)Nc1cc2c(Nc3ccc(F)c(Cl)c3)ncnc2cc1O[C@H]1CCOC1 [AFATINIB] | – | – | – | – | IC50 [15]: 164 nM; IC50 [11]: 0.3 nM
C=CC(=O)Nc1cc(Nc2nccc(-c3cn(C4CC4)c4ccccc34)n2)c(OC)cc1N1CCSCC1 | 734 | 333 | > 10000 | >30 | –
C=CC(=O)Nc1cc(Nc2nccc(-c3cn(C)c4ccccc34)n2)c(OC)cc1[S+]([O-])CCN(C)C (stereo not drawn) | – | – | – | – | Cmax [16]: 789 ng/mL; Cmax [17]: 275 ng/mL; MRT [18]: 2.07 h; half-life [19]: 0.62 h; Tmax [20]: 1 h; bioavailability [21]: 31.6%; MRT [22]: 0.89 h; half-life [23]: 1.43 h; AUC(0-t) [24]: 402 ng·h/mL; AUC(0-inf) [25]: 406 ng·h/mL; clearance [26]: 82.2 mL/min/kg; AUC(0-t) [27]: 635 ng·h/mL; AUC(0-inf) [28]: 652 ng·h/mL
